# Results published in US10682371B2, “Small molecule conjugates specifically activated in tumor microenvironment for targeting and use thereof” (priority 2014, dated 2020).
# Read-outs that look alike come from different tables or passages of the source.
# Key:
# 4T1 cells = assay: BALB/C mice model for tumor metastasis (4T1, lung metastases); assay type: in vivo; details: for Inhibitory rate on metastasis / Number of metastasized tumor: IV every three days for 4 times, Paclitaxel 4 mg/kg; for Inhibitory effect on tumor metastasis, in words: compared with parent drug group and control group
# Outline: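 Read-out: lung metastasis count under anatomical microscope after Bouin's staining, day 27. Treatment (IV every three days ×4, saline for controls) started after surgical removal of the ~1.5 cm subcutaneous tumor grown from 10^6 4T1 cells (passage ≤15) in BALB/C mice.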
# [1] = Solubility / formulation test in solvent 1 and solvent 2; assay type: physicochemical; details: for Concentration achieved, completely dissolved in both solvent 1 and solvent 2: solvent 1 injectable water
# [2] = system: Human fibrosarcoma HT-1080 tumor tissue homogenate; assay type: biochemical; details: Human fibrosarcoma HT-1080
# Outline: (§1)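 Homogenized tissue (100 μg) is acidified to pH6.0. Test compound is then added at 1 mg/ml, and the mixture is held at 37° C so that the proteases present can activate it.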
# tumor tissue homogenates = assay type: biochemical
# Outline: as §1
# [3] = system: Human ovarian cancer SK-OV-3; assay: Multiple tumor models in nude mice: SK-OV-3; assay type: in vivo
# Description: 1) Corresponding tumor cells were purchased from American type culture collection (ATCC) and identified according the specification provided by ATCC. Cells were cultivated in DMEM culture solution containing 10% fetal bovine serum at 37° C. and 5% CO2. The cells were passaged for every three days and cells within the 15th passage were used.
# 2) Production of tumor. 5×10^6 corresponding cells were subcutaneously injected to the back of the nude mice. Mice were randomly grouped after the tumor reached at least 100 mm^3. Then treatment began and the day on which the treatment began was day 1.
# (§2) 3) Course of treatment. […] The control group was administered by physiological saline. Animals were administered once weekly for three weeks.
# 3) Course of treatment. According to the clinical application of A1, A1 was administered in a dose of ⅙ MTD, i.v., 17.6 μmol/kg. The control group was administered by physiological saline. Animals were administered once weekly for three weeks.
# 3) Course of treatment. According to the clinical application of B1, B1 was administered in a dose of ⅙ MTD, i.v., 17.6 μmol/kg. The control group was administered by physiological saline. Animals were administered once weekly for three weeks.
# as §2, §2
# Human heart = assay type: biochemical; details: Human heart, 1 mg/ml
# BALB/C mice = assay: Maximum tolerated dose (MTD) / acute toxicity by single intravenous injection; details: for Behaviors and death observed: BALB/C mice receiving 90 mg/kg injection; for MTD (maximum tolerated dose): intravenous injection, one time
# [4] = system: Human prostate cancer PC-3 cells / Panc-1 cells; assay: Tumor treatment in nude mice (PC-3 cells purchased, Panc-1 cells injected; Examples 22, 32, 42); assay type: in vivo; details: for Inhibition on tumor growth, in words: compared with parent drug group (same molar concentration) and control group; for Size of tumor (mm^3) Day 10 / inhibitory rate on tumor Day 10 / Size of tumor (mm^3) Day 24 / inhibitory rate on tumor Day 24: nude mice, IV once weekly for four weeks, Paclitaxel 8 mg/kg
# Outline: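 Nude mice bearing subcutaneous Panc-1 xenografts (5×10^6 cells on the back) were randomized once tumors reached at least 100 mm^3. Drugs were given intravenously once weekly for four weeks, with saline controls. PC-3 cells were grown in DMEM/10% FBS and used within passage 15.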
# [5] = 4T1, BALB/C mice, lung, day 27, S1′-S4′ 12 mg/kg
# [6] = Table 28, BALB/C mice, 4T1, lung metastases day 27, A1-A4 12 mg/kg
# [7] = single intravenous injection, 125 mg/kg, 10 BALB/C mice per group
# [8] = single intravenous injection, 150 mg/kg, 10 BALB/C mice per group
# [9] = single intravenous injection, 175 mg/kg, 10 BALB/C mice per group
# [10] = single intravenous injection, 200 mg/kg, 10 BALB/C mice per group
compound,measurement,setting,value
"COCCOCC(=O)N[C@H](C)C(=O)N[C@H](C)C(=O)N[C@H](CC(N)=O)C(=O)Nc1ccc(COC(=O)OC(C(=O)OC2C[C@@]3(O)C(OC(=O)c4ccccc4)[C@@H]4C5(OC(C)=O)COC5C[C@H](O)[C@@]4(C)C(=O)[C@H](OC(C)=O)C(=C2C)C3(C)C)[C@@H](NC(=O)c2ccccc2)c2ccccc2)cc1 (stereo in doubt) [S1′, 2-(2-methoxyethoxy) acetylamino-L-Ala-L-Ala-L-Asn-p-amino-benzyl-paclitaxel]",Inhibitory rate on metastasis,4T1 cells; [5],99.2%
same,Number of metastasized tumor,4T1 cells; [5],2 ± 3
same,"Inhibitory effect on tumor metastasis, in words",4T1 cells,greatly improved
same,solubility in Solvent 1,"[1]; Solvent 1 injectable water, dissolution concentration 10 mg/ml",soluble
same,solubility in Solvent 2,"[1]; Solvent 2: 50% injectable water, 45%-49% propanediol, 1%-5% Tween80, dissolution concentration 10 mg/ml",soluble
same,"Concentration achieved, completely dissolved in both solvent 1 and solvent 2","[1]; solvent 2 50% injectable water, 42%-49% propanediol, 1%-8% Tween80",10000 µg/mL
same,Activation ratio (%) in homogenates from different tumor tissues,"[2]; 100 μg acidized homogenate pH6.0, 1 mg/ml, 37°",74.7%
same,"Activation efficiency by tumor tissue, in words",tumor tissue homogenates,highest activation efficiency among the screened compounds
same,inhibitory rate on tumor (Day 26),[3]; S1′ i.v. 17.6 μmol/kg once weekly for three weeks,85.6%
same,Activation ratio (%) in homogenates from different tumor tissues,Human heart; 37°,none
same,Behaviors and death observed,BALB/C mice,"no pilo-erection, hair tousle and lackluster, lethargy, stoop, irritable reaction and death"
same,MTD (maximum tolerated dose),BALB/C mice; BALB/C mice,about 90 mg/kg
same,Mortality rate (%),"BALB/C mice; BALB/C mice, single iv, 125 mg/kg",0%
same,Number of dead animal,"BALB/C mice; BALB/C mice, single iv, 125 mg/kg, 10 animals",0
same,Mortality rate (%),"BALB/C mice; BALB/C mice, single iv, 150 mg/kg",0%
same,Number of dead animal,"BALB/C mice; BALB/C mice, single iv, 150 mg/kg, 10 animals",0
same,Mortality rate (%),"BALB/C mice; BALB/C mice, single iv, 175 mg/kg",0%
same,Number of dead animal,"BALB/C mice; BALB/C mice, single iv, 175 mg/kg, 10 animals",0
same,Mortality rate (%),"BALB/C mice; BALB/C mice, single iv, 200 mg/kg",10%
same,Number of dead animal,"BALB/C mice; BALB/C mice, single iv, 200 mg/kg, 10 animals",1
same,"Inhibition on tumor growth, in words",[4],greatly improved
same,Size of tumor (mm^3) Day 10,[4]; S1′-S4′ 24 mg/kg,76.42 ± 14.96 mm^3
same,inhibitory rate on tumor Day 10,[4]; S1′-S4′ 24 mg/kg,35.7%
same,Size of tumor (mm^3) Day 24,[4]; S1′-S4′ 24 mg/kg,84.62 ± 45.94 mm^3
same,inhibitory rate on tumor Day 24,[4]; S1′-S4′ 24 mg/kg,66.1%
COCCOCC(=O)NCCCC[C@H](NC(=O)COCCOC)C(=O)N[C@H](C)C(=O)N[C@H](C)C(=O)N[C@H](CC(N)=O)C(=O)Nc1ccc(COC(=O)OC(C(=O)OC2C[C@@]3(O)[C@@H](OC(=O)c4ccccc4)[C@H]4[C@](C)(C(=O)[C@H](OC(C)=O)C(=C2C)C3(C)C)[C@@H](O)CC2OC[C@]24OC(C)=O)[C@@H](NC(=O)c2ccccc2)c2ccccc2)cc1 (stereo partly drawn) [Compound A1],Inhibitory rate on metastasis,4T1 cells; [6],97.9%
same,Number of metastasized tumor,4T1 cells; [6],3 ± 4
same,"Inhibitory effect on tumor metastasis, in words",4T1 cells,greatly improved
same,solubility in Solvent 1,"[1]; solvent 1 (injectable water), Table 22, Paclitaxel series",insoluble
same,"Concentration achieved, completely dissolved in both solvent 1 and solvent 2","[1]; solvent 2 45% alcohol, 55% injectable water",10000 µg/mL
same,solubility in Solvent 2,"[1]; solvent 2 (45% alcohol, 55% injectable water), Table 22, Paclitaxel series",soluble
same,"Solubility in water, in words",[1]; water,can directly dissolve in water
same,Activation ratio (%) in homogenates from different tumor tissues,"[2]; 1 mg/ml, 100 μg acidized homogenate pH6.0, Paclitaxel release by HPLC",77.7%
same,"Activation efficiency by tumor tissue, in words",tumor tissue homogenates,highest activation efficiency among the screened compounds
same,inhibitory rate on tumor (Day 26),"[3]; Table 29, i.v. 17.6 μmol/kg once weekly for three weeks",84.4%
same,Activation ratio (%) in homogenates from different tumor tissues,"Human heart; acidized homogenate pH6.0, Paclitaxel release by HPLC",none
same,Behaviors and death observed,BALB/C mice,"no pilo-erection, hair tousle and lackluster, lethargy, stoop, irritable reaction and death"
same,MTD (maximum tolerated dose),BALB/C mice; BALB/C mice,about 90 mg/kg
same,Mortality rate (%),BALB/C mice; [7],0%
same,Number of dead animal,BALB/C mice; [7],0
same,Mortality rate (%),BALB/C mice; [8],0%
same,Number of dead animal,BALB/C mice; [8],0
same,Mortality rate (%),BALB/C mice; [9],0%
same,Number of dead animal,BALB/C mice; [9],0
same,Mortality rate (%),BALB/C mice; [10],0%
same,Number of dead animal,BALB/C mice; [10],0
same,Size of tumor (mm^3) Day 10,"[4]; Table 26, A1-A4 24 mg/kg",85.16 ± 58.4 mm^3
same,inhibitory rate on tumor Day 10,"[4]; Table 26, A1-A4 24 mg/kg",71.1%
same,Size of tumor (mm^3) Day 24,"[4]; Table 26, A1-A4 24 mg/kg",89.78 ± 63.7 mm^3
same,inhibitory rate on tumor Day 24,"[4]; Table 26, A1-A4 24 mg/kg",76.4%
same,"Inhibition on tumor growth, in words",[4],greatly improved
